{"source": "patent US8741836B2", "about": "“Polypeptides” (Novo Nordisk A/S, priority 2011, dated 2014)", "key": {"[1]": {"assay": "Assay (IV) determination of solubility", "assay_type": "physicochemical", "protocol": "Assay (IV)—Determination of Solubility\nThe polypeptide was dissolved in water at −500 nmol/ml and mixed 1:1 with a series of buffers (100 mM glycylglycine pH 3.0, 100 mM glycylglycine pH 4.0, 100 mM glycylglycine pH 5.0, 100 mM bistrispropane pH 6.0, 100 mM bistrispropane pH 6.5, 100 mM bistrispropane pH 7.0, 100 mM bistrispropane pH 7.5, 100 mM bistrispropane pH 8.0). After 18 hours at room temperature the samples were centrifuged and the polypeptide concentration determined by HPLC."}, "[2]": {"molecular_target": "T1, rat amylin 3(a) receptor (rat calcitonin(a) receptor+rat RAMP3) (Rattus norvegicus, UniProt P32214+Q9JJ73)", "T1 construct": "expressed in transfected cells; host or cells: BHK tk'ts 13 (transient, FuGENE 6)", "T1 sequence (P32214 25-479 isoform P32214-2 limits assumed)": "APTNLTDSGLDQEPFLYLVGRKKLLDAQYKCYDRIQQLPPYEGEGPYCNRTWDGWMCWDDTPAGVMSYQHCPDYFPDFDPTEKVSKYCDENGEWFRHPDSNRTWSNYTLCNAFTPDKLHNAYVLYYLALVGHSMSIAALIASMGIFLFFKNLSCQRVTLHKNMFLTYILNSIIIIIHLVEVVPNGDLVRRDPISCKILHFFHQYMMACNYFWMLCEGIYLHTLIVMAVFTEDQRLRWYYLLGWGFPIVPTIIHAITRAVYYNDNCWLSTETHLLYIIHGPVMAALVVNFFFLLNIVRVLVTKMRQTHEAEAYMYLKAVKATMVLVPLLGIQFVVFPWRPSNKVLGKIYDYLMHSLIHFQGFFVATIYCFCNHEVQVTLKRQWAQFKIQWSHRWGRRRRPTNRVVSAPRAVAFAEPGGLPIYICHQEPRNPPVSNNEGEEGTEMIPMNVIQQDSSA", "T1 sequence (Q9JJ73 24-147 partner limits assumed)": "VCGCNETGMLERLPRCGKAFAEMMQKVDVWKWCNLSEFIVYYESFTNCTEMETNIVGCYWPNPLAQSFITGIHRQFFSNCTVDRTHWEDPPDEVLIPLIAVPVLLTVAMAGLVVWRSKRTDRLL", "assay": "Assay (II)b functional assay, rat amylin receptor (cAMP FlashPlate)", "assay_type": "cell-based", "settings": "Table 11", "excerpt": "Assay (II)b—Rat Calcitonin and Rat Amylin Receptor Assays\nActivation of calcitonin and amylin (coexpression of calcitonin receptor and receptor activity modifying proteins (RAMP)) receptors lead to increased intracellular concentrations of cAMP. In order to quantify the cAMP levels in transiently transfected cells the Adenylyl Cyclase Activation FlashPlate® Assay from Perkin Elmer was used. The basic principle of the FlashPlate® Assay is a competition between radioactive and non-radioactive cAMP generated by the cells for a fixed number of binding sites.\nConstruction of Rat Calcitonin(a)- and Rat Amylin 3(a)-Receptor Cells.\nBHK tk'ts 13 cells were transiently transfected with either rat calcitonin (a) receptor or amylin 3 (a) receptor (rat calcitonin(a) receptor+rat RAMP3) using FuGENE® 6 (Roche), according to the manufacturers recommendations.\n24 hours after transient transfection the cells (rat calcitonin(a)- or rat amylin 3(a)-receptor cells) were added (100.000 cells/well) to the 96 well FlashPlates® with samples or standard in FlashPlate stimulation buffer with IBMX and incubated for 30 min. Detection mix was created according to manufacturers protocol and scintillation measured after 3 h of incubation on TopCounter™ (Packard)."}}, "note": "Where two headings read alike, the source gives them in different places. Starred links: 1 amine or outer side, 2 acyl side, 3 side chain; linkers in the order of their positions; H or OH if unused. Positions of bridges follow the written chain, without caps; N, C: chain ends. Residues, ends and D or L forms follow the SMILES beside them. Groups on a side chain read outwards from the residue. *: point of attachment. C18 diacid = O=C(O)CCCCCCCCCCCCCCCCC(=O)*; γGlu = O=C(O)[C@H](CCC(=O)[*:2])N[*:1]; AEEA = NCCOCCOCC(=O)O", "data": [{"smiles": "CC[C@H](C)[C@H](NC(=O)[C@@H]1CCCN1C(=O)CNC(=O)[C@H](Cc1ccccc1)NC(=O)[C@H](CC(N)=O)NC(=O)[C@H](CCCCNC(=O)COCCOCCNC(=O)COCCOCCNC(=O)CC[C@H](NC(=O)CCCCCCCCCCCCCCCCC(=O)O)C(=O)O)NC(=O)[C@H](CO)NC(=O)[C@H](CO)NC(=O)[C@H](Cc1c[nH]cn1)NC(=O)[C@H](Cc1c[nH]cn1)NC(=O)[C@H](CC(C)C)NC(=O)[C@H](Cc1ccccc1)NC(=O)[C@H](CCC(=O)O)NC(=O)[C@H](C)NC(=O)[C@H](CC(C)C)NC(=O)[C@H](CCCNC(=N)N)NC(=O)[C@H](CCC(N)=O)NC(=O)[C@@H](NC(=O)[C@H](C)NC(=O)[C@@H]1CSSC[C@H](NC(=O)[C@@H](N)CCCCN)C(=O)N[C@@H](CC(N)=O)C(=O)N[C@@H]([C@@H](C)O)C(=O)N[C@@H](C)C(=O)N[C@@H]([C@@H](C)O)C(=O)N1)[C@@H](C)O)C(=O)N[C@@H](CC(C)C)C(=O)N1CCC[C@H]1C(=O)N1CCC[C@H]1C(=O)N[C@H](C(=O)N[C@@H](CC(N)=O)C(=O)N[C@H](C(=O)NCC(=O)N[C@@H](CO)C(=O)N[C@@H](CCC(=O)O)C(=O)N[C@H](C(=O)N[C@@H](Cc1ccc(O)cc1)C(N)=O)[C@@H](C)O)C(C)C)[C@@H](C)O", "note": "[Example 74, N-epsilon21-[2-(2-{2-[2-(2-{2-[(S)-4-Carboxy-4-(17-carboxyheptadecanoylamino)butyrylamino]ethoxy}ethoxy)acetylamino]ethoxy}ethoxy)acetyl]-[Glu14,His17,Lys21,Glu35]-pramlintide] (H-KCNTATCATQRLAEFLHHSSK([AEEA-AEEA-γGlu-C18 diacid])NFGPILPPTNVGSETY-NH2; disulfide 2-7 (inferred); N-terminus and C-terminus assumed)", "values": [{"measurement": "solubility at 18 h", "setting": "[1]; bistrispropane buffer, pH 6.5, read-out: Solubility", "value": "> 200", "unit": "µM"}, {"measurement": "solubility at 18 h", "setting": "[1]; bistrispropane buffer, pH 7.5, read-out: Solubility pH 7.5", "value": "> 200", "unit": "µM"}, {"measurement": "solubility at 18 h", "setting": "[1]; bistrispropane buffer, pH 6.0, read-out: Solubility", "value": "> 200", "unit": "µM"}, {"measurement": "solubility at 18 h", "setting": "[1]; bistrispropane buffer, pH 7.0, read-out: Solubility pH 7.0", "value": "> 200", "unit": "µM"}, {"measurement": "solubility at 18 h", "setting": "[1]; bistrispropane buffer, pH 8.0, read-out: Solubility", "value": "> 200", "unit": "µM"}, {"measurement": "solubility at 18 h", "setting": "[1]; glycylglycine buffer, pH 3.0, read-out: Solubility", "value": "> 200", "unit": "µM"}, {"measurement": "solubility at 18 h", "setting": "[1]; glycylglycine buffer, pH 4.0, read-out: Solubility pH 4.0", "value": "> 200", "unit": "µM"}, {"measurement": "solubility at 18 h", "setting": "[1]; glycylglycine buffer, pH 5.0, read-out: Solubility", "value": "> 200", "unit": "µM"}, {"measurement": "solubility at 18 h", "setting": "[1]; pH 4.0, read-out: Solubility", "value": ">200", "unit": "µM"}, {"measurement": "solubility at 18 h", "setting": "[1]; pH 7.0, read-out: Solubility", "value": ">200", "unit": "µM"}, {"measurement": "solubility at 18 h", "setting": "[1]; pH 7.5, read-out: Solubility", "value": ">200", "unit": "µM"}, {"measurement": "EC50", "setting": "[2]", "value": 504, "unit": "pM"}]}]}
